Assay results: BindingDB's records for doi:10.1021/ml300172p (2012)

Assays:
[1] = Inhibition of human Shh-induced mouse C3H10T1/2 cell differentiation after 48 hrs by alkaline phosphatase reporter assay
[2] = Inhibition of Smo in mouse C3H10T1/2 cells assessed as inhibition of human Shh-induced cell differentiation after 48 hrs by alkaline phosphatase reporter assay

Structure (SMILES) | IC50 [1] [µM] | IC50 [2] [µM]
CC1=C2C[C@H]3[C@@H](CC=C4C[C@@H](O)CC[C@@]43C)[C@@H]2CC[C@]12O[C@@H]1C[C@H](C)CN[C@H]1[C@H]2C | 0.6 | –
C[C@@H]1NC(=O)[C@H](CC(=O)NCc2ccc(Cl)cc2)C/C=C/CCC(=O)O[C@@H]1c1ccccc1 | – | 15
C[C@H]1NC(=O)[C@H](CC(=O)NCc2ccc(Cl)cc2)C/C=C/CCC(=O)O[C@@H]1c1ccccc1 | – | 11
O=C(C[C@@H]1C/C=C/CCC(=O)OC[C@@H]2CCCN2C1=O)NCc1ccc(Cl)cc1 | – | 15
O=C(C[C@@H]1C/C=C/CCC(=O)N[C@H](c2ccccc2)COC1=O)NCc1ccc(Cl)cc1 | – | 5
O=C(C[C@@H]1C/C=C/CCC(=O)N[C@@H]2c3ccccc3C[C@@H]2OC1=O)NCc1ccc(Cl)cc1 | – | > 25
C[C@H]1[C@@H](c2ccccc2)OC(=O)CC/C=C/C[C@@H](CC(=O)NCc2ccc(Cl)cc2)C(=O)N1C | – | 8
O=C(C[C@@H]1C/C=C/CCC(=O)N[C@@H](c2ccccc2)COC1=O)NCc1ccc(Cl)cc1 | – | 20
C[C@H]1C/C=C/C[C@@H](CC(=O)NCc2ccc(Cl)cc2)C(=O)OC[C@@H](c2ccccc2)NC1=O | – | 8
O=C(C[C@@H]1C/C=C/C[C@H](Cc2ccccc2)C(=O)N[C@H](c2ccccc2)COC1=O)NCc1ccc(Cl)cc1 | – | 6
CC(C)N[C@H]1C/C=C/C[C@@H](CC(=O)NCc2ccc(Cl)cc2)C(=O)NC[C@@H](c2ccccc2)OC1=O | – | > 25
C[C@H]1C/C=C\C[C@@H](CC(=O)NCc2ccc(Cl)cc2)C(=O)OC[C@@H](c2ccccc2)NC1=O | – | 4
C[C@H]1[C@@H](c2ccccc2)OC(=O)CCCCC[C@@H](CC(=O)NCc2ccc(Cl)cc2)C(=O)N1C | – | 11
C=CCCC(=O)O[C@@H](CNC(=O)[C@@H](CC=C)CC(=O)NCc1ccc(Cl)cc1)c1ccccc1 | – | > 25
C[C@@H]1C/C=C/CCC(=O)N[C@H](c2ccccc2)COC1=O | – | > 25
CC(=O)N[C@@H]1C/C=C/CCC(=O)N[C@H](c2ccccc2)COC1=O | – | > 25
CN1CCN(C(=O)C[C@@H]2C/C=C/CCC(=O)O[C@H](c3ccccc3)CNC2=O)CC1 | – | > 25
O=C(C[C@@H]1C/C=C/CCC(=O)O[C@H](c2ccccc2)CNC1=O)NCCCC(F)(F)F | – | 4
CC(C)(C)OC(=O)C[C@@H]1C/C=C/CCC(=O)N[C@H](c2ccccc2)COC1=O | – | 7
CN1C[C@@H](c2ccccc2)OC(=O)CC/C=C/C[C@@H](Cc2ccc(Cl)cc2)C1=O | – | 8
O=C(C[C@@H]1C/C=C/CCC(=O)O[C@H](c2ccccc2)CNC1=O)NCc1cccc(Cl)c1 | – | 5
O=C(CN1C/C=C/CCC(=O)N[C@H](c2ccccc2)COC1=O)NCc1ccc(Cl)cc1 | – | > 25
O=C(C[C@@H]1C/C=C/CCC(=O)N[C@H](C2CCCCC2)COC1=O)NCc1ccc(Cl)cc1 | – | 5
O=C(C[C@@H]1C/C=C/CCC(=O)N[C@H](Cc2ccccc2)COC1=O)NCc1ccc(Cl)cc1 | – | 4
CCCC[C@@H]1COC(=O)[C@H](CC(=O)NCc2ccc(Cl)cc2)C/C=C/CCC(=O)N1 | – | > 10
CC(C)[C@@H]1COC(=O)[C@H](CC(=O)NCc2ccc(Cl)cc2)C/C=C/CCC(=O)N1 | – | 23
O=C(C[C@@H]1C/C=C/CCC(=O)N[C@H](c2ccc(F)cc2)COC1=O)NCc1ccc(Cl)cc1 | – | 5
O=C(C[C@@H]1C/C=C/CCC(=O)N[C@H](c2ccc(Cl)cc2)COC1=O)NCc1ccc(Cl)cc1 | – | 0.6
O=C(C[C@@H]1C/C=C/CCC(=O)OCCNC1=O)NCc1ccc(Cl)cc1 [(S,E)-N-(4-chlorobenzyl)-2-(5,12-dioxo-1-oxa-4-azacyclododec-8-en-6-yl)acetamide] | – | > 25
O=C(C[C@@H]1C/C=C/CCC(=O)O[C@H](c2ccccc2)CNC1=O)NCc1ccc(Cl)cc1 [N-(4-chlorobenzyl)-2-((2R,6S,E)-5,12-dioxo-2-phenyl-1-oxa-4-azacyclododec-8-en-6-yl)acetamide] | > 25 | –
